Measurements published in paper doi:10.1101/2022.07.05.498881v1 (biorxiv, 2022).
Where two headings read alike, the source gives them in different places.

Experiments:
[1] = molecular target: T1, SARS-CoV-1 MPro (SARS-CoV-1 major protease) (Severe acute respiratory syndrome-related coronavirus, UniProt P0C6X7); test: biochemical
T1 construct: gene rep

[2] = molecular target: T2, MERS MPro (MERS-CoV MPro, MERS major protease) (Betacoronavirus England 1, UniProt K9N7C7); test: biochemical
T2 construct: gene rep
T2 sequence (K9N7C7 3248-3553 limits assumed): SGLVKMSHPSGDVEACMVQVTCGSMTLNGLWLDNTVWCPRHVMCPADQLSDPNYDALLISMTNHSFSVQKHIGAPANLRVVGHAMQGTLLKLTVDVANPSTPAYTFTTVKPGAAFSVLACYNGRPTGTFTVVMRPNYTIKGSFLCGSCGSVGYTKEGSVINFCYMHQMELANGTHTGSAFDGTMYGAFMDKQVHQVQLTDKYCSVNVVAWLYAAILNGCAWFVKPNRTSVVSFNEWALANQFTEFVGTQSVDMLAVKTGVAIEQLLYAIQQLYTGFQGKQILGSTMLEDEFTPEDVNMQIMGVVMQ

[3] = molecular target: T3, SARS-CoV-2 MPro (main protease, 3CL protease, Nsp5) (Severe acute respiratory syndrome coronavirus 2, UniProt P0DTD1); test: biochemical; design: fluorogenic NSP7 peptide substrate cleavage, concentration-response inhibition of MPro
T3 construct: gene rep

[4] = molecular target: T3, SARS-CoV-2 MPro (main protease, 3CL protease, Nsp5); design: fluorogenic NSP7 peptide substrate cleavage, concentration-response inhibition of MPro; conditions: read-out: IC50 [µM] (ACN); compound in acetonitrile; inhibitor

Structure (SMILES) | IC50 [3] [µM] | also measured
O=Cc1ncc(Br)cc1OCc1ccc(Cl)c([N+](=O)[O-])c1 ['7021] | – | IC50 [1]: 8 µM; IC50 [2]: 50 µM
COc1cc(C=O)c(OS(=O)(=O)CC2CCCCC2)cc1OC [ZINC271072260] | 115 | –
Cc1noc(C)c1CCCNc1nc(-c2ccncc2)nc2ccccc12 [ZINC301553312] | 122 | –
CC1CN(c2ncnc3sc4ccccc4c23)CC(=O)N1C (stereo not shown) [ZINC336912805] | – | IC50 ([3]; read-out: IC50 [µM] (DMSO), compound in DMSO, inhibitor): 250 µM; IC50 [4]: 177 µM
COC(=O)c1cc(C#N)c(=O)n(Cc2cccc(F)c2Cl)c1 [ZINC338540162] | 281 | –
O=C(Cc1cccnc1)N(Cc1ccccn1)c1ccc(Cl)cc1 [ZINC346371112] | 214 | –
O=c1cc(CN2CC(CO)c3ccccc32)nc2ccccn12 (stereo not shown) [ZINC433294115] | 97 | –
CC1CN(C(=O)CCn2cc(Br)ccc2=O)Cc2ccccc2O1 (stereo not shown) [ZINC553840273] | 200 | –
